Laboratory results reported in US4572895A, “Process for preparing an antibiotic complex by culturing actinomyces strain ATCC 39417” (priority 1985, dated 1986).
Converted amounts (≈) assume the structure as drawn.

Tests used:
[1] = tested on: Staphylococcus aureus 209P; assay: MIC, serial two-fold agar dilution; assay type: cell-based; conditions: nutrient agar
[2] = tested on: melanotic melanoma B16; assay: antitumor activity, B16 melanoma in mice; conditions: qd 1→9
[3] = tested on: Staphylococcus aureus; assay: anti-staphylococcal activity (MIC comparison); assay type: cell-based; conditions: vs BBM-2478B or chartreusin
[4] = tested on: gram-negative bacteria and fungi; assay: antibacterial/antifungal activity (MIC), summary; assay type: cell-based
[5] = tested on: Micrococcus luteus PCI 1001; assay: MIC, serial two-fold agar dilution; assay type: cell-based; conditions: PCI1001, nutrient agar
[6] = tested on: Klebsiella pneumoniae D11; assay: MIC, serial two-fold agar dilution; assay type: cell-based; conditions: nutrient agar
[7] = tested on: lymphocytic leukemia P388; assay: antitumor activity, P388 leukemia in mice; conditions: qd 1→9
[8] = tested on: Clostridium perfringens; assay: microbe, parasite or virus in culture; assay type: cell-based
[9] = tested on: Escherichia coli NIHJ; assay: MIC, serial two-fold agar dilution; assay type: cell-based; conditions: nutrient agar
[10] = tested on: Micrococcus flavus D12; assay: MIC, serial two-fold agar dilution; assay type: cell-based; conditions: nutrient agar
[11] = tested on: aerobic gram-positive bacteria and anaerobic bacteria; assay: antibacterial activity, summary; assay type: cell-based
Excerpt: Nutrient agar medium was used for gram-positive and gram-negative bacteria, GAM agar medium for anaerobes and Sabouraud agar medium for fungi.

[12] = tested on: Propionibacterium acnes; assay: MIC, serial two-fold agar dilution; assay type: cell-based; conditions: Cutibacterium acnes; GAM agar, anaerobe
[13] = tested on: Cryptococcus neoformans D49; assay: MIC, serial two-fold agar dilution; assay type: cell-based; conditions: Sabouraud agar
[14] = tested on: Pseudomonas aeruginosa D15; assay: MIC, serial two-fold agar dilution; assay type: cell-based; conditions: nutrient agar
[15] = acute toxicity, single intraperitoneal administration; conditions: mouse, in vivo; single ip, mice (ddY strain)
[16] = tested on: Candida albicans IAM 4888; assay: MIC, serial two-fold agar dilution; assay type: cell-based; conditions: IAM4888, Sabouraud agar
[17] = solubility; assay type: physicochemical
[18] = tested on: Bacillus subtilis PCI 219; assay: MIC, serial two-fold agar dilution; assay type: cell-based; conditions: PCI219, nutrient agar
[19] = tested on: Staphylococcus aureus Smith; assay: MIC, serial two-fold agar dilution; assay type: cell-based; conditions: nutrient agar
[20] = tested on: Aspergillus fumigatus IAM 2530; assay: MIC, serial two-fold agar dilution; assay type: cell-based; conditions: IAM2530, Sabouraud agar
[21] = tested on: Bacteroides fragilis; assay: MIC, serial two-fold agar dilution; assay type: cell-based; conditions: GAM agar, anaerobe
[22] = tested on: Trichophyton mentagrophytes D155; assay: MIC, serial two-fold agar dilution; assay type: cell-based; conditions: Sabouraud agar
[23] = tested on: lymphoid leukemia L1210; assay: antitumor activity, L1210 leukemia in mice; conditions: qd 1→9
[24] = tested on: Clostridium difficile; assay: MIC, serial two-fold agar dilution; assay type: cell-based; conditions: Clostridioides difficile; GAM agar, anaerobe
[25] = tested on: P388, L1210 and B16 tumors; assay: antitumor activity in mice, summary over P388, L1210 and B16; assay type: in vivo, BDF1 mice

CO[C@@H]1[C@@H](N)[C@@H](O[C@H]2[C@H](Oc3cccc4c(O)c5c(=O)oc6ccc(C)c7c(=O)oc(c34)c5c67)O[C@H](C)[C@H](O)[C@]2(C)O)O[C@H](C)[C@@H]1O [BBM-2478A]
MIC [1]: 1.6 µg/mL (≈ 2.45 µM) | Average wt. change on day 5 ([2]; 0.03 mg/kg/day ip): +2.0 g | MST ([2]; 0.03 mg/kg/day ip): 16.0 days | Survivors on day 5 ([2]; 0.03 mg/kg/day ip): 6/6 | Survivors on day 45 ([2]; 0.03 mg/kg/day ip): 0/6 | T/C ([2]; 0.03 mg/kg/day ip): 114% | Average wt. change on day 5 ([2]; 0.1 mg/kg/day ip): +2.5 g | MST ([2]; 0.1 mg/kg/day ip): 18.5 days | Survivors on day 5 ([2]; 0.1 mg/kg/day ip): 6/6 | Survivors on day 45 ([2]; 0.1 mg/kg/day ip): 0/6 | Average wt. change on day 5 ([2]; 0.3 mg/kg/day ip): +2.5 g | MST ([2]; 0.3 mg/kg/day ip): 25.5 days | Survivors on day 5 ([2]; 0.3 mg/kg/day ip): 6/6 | Survivors on day 45 ([2]; 0.3 mg/kg/day ip): 0/6 | Average wt. change on day 5 ([2]; 1 mg/kg/day ip): +2.2 g | MST ([2]; 1 mg/kg/day ip): 34.5 days | Survivors on day 5 ([2]; 1 mg/kg/day ip): 6/6 | Survivors on day 45 ([2]; 1 mg/kg/day ip): 0/6 | Average wt. change on day 5 ([2]; 3 mg/kg/day ip): +1.5 g | MST ([2]; 3 mg/kg/day ip): 41.5 days | Survivors on day 5 ([2]; 3 mg/kg/day ip): 6/6 | Survivors on day 45 ([2]; 3 mg/kg/day ip): 0/6 | anti-staphylococcal activity relative to BBM-2478B or chartreusin [3]: two to four times higher | activity against gram-negative bacteria and fungi [4]: inactive | MIC [5]: 0.8 µg/mL (≈ 1.22 µM) | MIC [6]: 100 µg/mL (≈ 153 µM) | Average wt. change on day 5 ([7]; 0.01 mg/kg/day ip): +2.0 g | MST ([7]; 0.01 mg/kg/day ip): 10.0 days | Survivors on day 5 ([7]; 0.01 mg/kg/day ip): 6/6 | Survivors on day 45 ([7]; 0.01 mg/kg/day ip): 0/6 | T/C ([7]; 0.01 mg/kg/day ip): 111% | Average wt. change on day 5 ([7]; 0.03 mg/kg/day ip): +2.3 g | MST ([7]; 0.03 mg/kg/day ip): 10.0 days | Survivors on day 5 ([7]; 0.03 mg/kg/day ip): 6/6 | Survivors on day 45 ([7]; 0.03 mg/kg/day ip): 0/6 | Average wt. change on day 5 ([7]; 0.1 mg/kg/day ip): +1.2 g | MST ([7]; 0.1 mg/kg/day ip): 14.5 days | Survivors on day 5 ([7]; 0.1 mg/kg/day ip): 6/6 | Survivors on day 45 ([7]; 0.1 mg/kg/day ip): 0/6 | Average wt. change on day 5 ([7]; 0.3 mg/kg/day ip): +1.8 g | MST ([7]; 0.3 mg/kg/day ip): 17.0 days | Survivors on day 5 ([7]; 0.3 mg/kg/day ip): 6/6 | Survivors on day 45 ([7]; 0.3 mg/kg/day ip): 0/6 | Average wt. change on day 5 ([7]; 1 mg/kg/day ip): +0.8 g | MST ([7]; 1 mg/kg/day ip): 21.5 days | Survivors on day 5 ([7]; 1 mg/kg/day ip): 6/6 | Survivors on day 45 ([7]; 1 mg/kg/day ip): 0/6 | Average wt. change on day 5 ([7]; 3 mg/kg/day ip): -1.0 g | MST ([7]; 3 mg/kg/day ip): 20.0 days | Survivors on day 5 ([7]; 3 mg/kg/day ip): 5/5 | Survivors on day 45 ([7]; 3 mg/kg/day ip): 0/5 | MIC [8]: 6.3 µg/mL (≈ 9.64 µM) | MIC [9]: 100 µg/mL (≈ 153 µM) | MIC [10]: 0.8 µg/mL (≈ 1.22 µM) | antibacterial activity [11]: potent antibacterial activity | MIC [12]: 6.3 µg/mL (≈ 9.64 µM) | MIC [13]: > 100 µg/mL | MIC [14]: 100 µg/mL (≈ 153 µM) | LD50 [15]: 38 mg/kg | MIC [16]: > 100 µg/mL | solubility in acidic water ([17]; acidic water): readily soluble | solubility in dimethyl sulfoxide, dimethylformamide, dioxane ([17]; dimethyl sulfoxide, dimethylformamide, dioxane): readily soluble | solubility in methanol, ethanol and chloroform ([17]; methanol, ethanol, chloroform): slightly soluble | solubility in other organic solvents ([17]; other organic solvents): insoluble | MIC [18]: 0.8 µg/mL (≈ 1.22 µM) | MIC [19]: 0.8 µg/mL (≈ 1.22 µM) | MIC [20]: > 100 µg/mL | MIC [21]: 12.5 µg/mL (≈ 19.1 µM) | MIC [22]: > 100 µg/mL | Average wt. change on day 5 ([23]; 0.01 mg/kg/day ip): +3.2 g | MST ([23]; 0.01 mg/kg/day ip): 8.0 days | Survivors on day 5 ([23]; 0.01 mg/kg/day ip): 6/6 | Survivors on day 45 ([23]; 0.01 mg/kg/day ip): 0/6 | T/C ([23]; 0.01 mg/kg/day ip): 100% | Average wt. change on day 5 ([23]; 0.03 mg/kg/day ip): +2.9 g | MST ([23]; 0.03 mg/kg/day ip): 8.0 days | Survivors on day 5 ([23]; 0.03 mg/kg/day ip): 6/6 | Survivors on day 45 ([23]; 0.03 mg/kg/day ip): 0/6 | T/C ([23]; 0.03 mg/kg/day ip): 100% | Average wt. change on day 5 ([23]; 0.1 mg/kg/day ip): +2.6 g | MST ([23]; 0.1 mg/kg/day ip): 8.0 days | Survivors on day 5 ([23]; 0.1 mg/kg/day ip): 6/6 | Survivors on day 45 ([23]; 0.1 mg/kg/day ip): 0/6 | T/C ([23]; 0.1 mg/kg/day ip): 100% | Average wt. change on day 5 ([23]; 0.3 mg/kg/day ip): +1.3 g | MST ([23]; 0.3 mg/kg/day ip): 10.5 days | Survivors on day 5 ([23]; 0.3 mg/kg/day ip): 6/6 | Survivors on day 45 ([23]; 0.3 mg/kg/day ip): 0/6 | Average wt. change on day 5 ([23]; 1 mg/kg/day ip): -0.8 g | MST ([23]; 1 mg/kg/day ip): 11.0 days | Survivors on day 5 ([23]; 1 mg/kg/day ip): 6/6 | Survivors on day 45 ([23]; 1 mg/kg/day ip): 0/6 | Average wt. change on day 5 ([23]; 3 mg/kg/day ip): -0.1 g | MST ([23]; 3 mg/kg/day ip): 12.0 days | Survivors on day 5 ([23]; 3 mg/kg/day ip): 6/6 | Survivors on day 45 ([23]; 3 mg/kg/day ip): 0/6 | MIC [24]: 12.5 µg/mL (≈ 19.1 µM) | T/C values compared with chartreusin ([25]; all tumors tested, ip, qd 1→9): superior to those of chartreusin | antitumor activity ([25]; experimental mouse tumors): significant antitumor activity
